According to PubChem BioAssay AID248 (DTP/NCI, 2004):
“And” between values parts separate entries of the source, which are not always exact repeats. Equal values may be shown once. Inconclusive results and toxic doses are left out. Rule as the data show it: active = T/C of 150% or more; inactive = T/C below 125%.

Test system: L1210 leukemia ip in BDF1 mice, survival T/C
Test: NCI In Vivo Anticancer Drug Screen. Data for tumor model L1210 Leukemia (intraperitoneal) in B6D2F1 (BDF1) mice
Settings: endpoint: mean survival time, higher = longer survival
In short: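 Value reflects the ratio of survival in compound-treated mice to survival in vehicle-treated controls, with both groups carrying the same transplanted tumor.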

[1] = dose: 100.0 mg/kg/injection, schedule: Q01DX001 (ip), vehicle: saline with Tween-80
[2] = dose: 200.0 mg/kg/injection, schedule: Q01DX001 (ip), vehicle: saline with Tween-80
[3] = dose: 400.0 mg/kg/injection, schedule: Q01DX001 (ip), vehicle: saline with Tween-80
[4] = dose: 200.0 mg/kg/injection, schedule: Q01DX001 (ip), vehicle: saline
[5] = dose: 100.0 mg/kg/injection, schedule: Q01DX009 (ip), vehicle: Klucel (hydroxypropylcellulose) (HPC)
[6] = dose: 200.0 mg/kg/injection, schedule: Q01DX009 (ip), vehicle: Klucel (hydroxypropylcellulose) (HPC)
[7] = dose: 400.0 mg/kg/injection, schedule: Q01DX009 (ip), vehicle: Klucel (hydroxypropylcellulose) (HPC)
[8] = dose: 100.0 mg/kg/injection, schedule: Q04DX002 (ip), vehicle: Klucel (hydroxypropylcellulose) (HPC)
[9] = dose: 200.0 mg/kg/injection, schedule: Q04DX002 (ip), vehicle: Klucel (hydroxypropylcellulose) (HPC)
[10] = dose: 100.0 mg/kg/injection, schedule: Q04DX003 (ip), vehicle: saline with Tween-80
[11] = dose: 100.0 mg/kg/injection, schedule: Q04DX002 (ip), vehicle: saline with Tween-80
[12] = dose: 100.0 mg/kg/injection, schedule: Q01DX009 (ip), vehicle: saline with Tween-80
[13] = dose: 200.0 mg/kg/injection, schedule: Q01DX009 (ip), vehicle: saline with Tween-80
[14] = dose: 100.0 mg/kg/injection, schedule: Q04DX003 (ip), vehicle: saline sonified
[15] = dose: 200.0 mg/kg/injection, schedule: Q04DX003 (ip), vehicle: saline sonified
[16] = dose: 400.0 mg/kg/injection, schedule: Q04DX003 (ip), vehicle: saline sonified

Measured: T/C

O=C(Oc1ccncc1)c1ccccc1
inactive: [1] 92 % of control | [2] 96 % of control | [3] 103 % of control

NC1CCCc2ccccc2C1O (centres undefined)
inactive: dose: 100.0 mg/kg/injection, schedule: Q01DX001 (ip), vehicle: saline 102 % of control | [4] 104 % of control

CCOc1ccccc1NC(=O)Nc1ccccc1OC
inactive: [5] 103 % of control | dose: 100.0 mg/kg/injection, schedule: Q04DX003 (ip), vehicle: Klucel (hydroxypropylcellulose) (HPC) 103 % of control | [6] 98 % of control | dose: 200.0 mg/kg/injection, schedule: Q04DX003 (ip), vehicle: Klucel (hydroxypropylcellulose) (HPC) 96 % of control | [7] 98 % of control | dose: 400.0 mg/kg/injection, schedule: Q04DX003 (ip), vehicle: Klucel (hydroxypropylcellulose) (HPC) 100 % of control

[N-]=[N+]=NC(c1ccccc1)S(=O)c1ccccc1 (centres undefined)
inactive: [8] 90 % of control | [9] 108 % of control

COc1ccc(C(=O)C=C(C(F)(F)F)C(F)(F)F)cc1
inactive: dose: 25.0 mg/kg/injection, schedule: Q04DX003 (ip), vehicle: saline with Tween-80 93 % of control | dose: 50.0 mg/kg/injection, schedule: Q04DX003 (ip), vehicle: saline with Tween-80 102 % of control | [10] 100 % of control and 102 % of control

O=S(NOCc1ccccc1)c1ccc(Cl)cc1 (centres undefined)
inactive: [5] 93 % of control | [6] 102 % of control | [7] 93 % of control

ClCCN(CCCl)CCNc1ccnc2cc(Cl)ccc12
inactive: dose: 5.0 mg/kg/injection, schedule: Q01DX001 (ip), vehicle: saline 100 % of control | dose: 10.0 mg/kg/injection, schedule: Q01DX001 (ip), vehicle: saline 108 % of control | dose: 20.0 mg/kg/injection, schedule: Q01DX001 (ip), vehicle: saline 117 % of control | dose: 40.0 mg/kg/injection, schedule: Q01DX001 (ip), vehicle: saline 116 % of control

COc1cccc(C(Cc2ccccc2)NCc2ccccc2)c1 (centres undefined)
inactive: [5] 91 % of control | [6] 91 % of control | [7] 96 % of control

O=C1C2CCN(CC2)C1CNC1(c2ccccc2)CCCCC1 (centres undefined)
inactive: dose: 50.0 mg/kg/injection, schedule: Q01DX001 (ip), vehicle: Klucel (hydroxypropylcellulose) (HPC) 98 % of control | dose: 100.0 mg/kg/injection, schedule: Q01DX001 (ip), vehicle: Klucel (hydroxypropylcellulose) (HPC) 92 % of control | dose: 200.0 mg/kg/injection, schedule: Q01DX001 (ip), vehicle: Klucel (hydroxypropylcellulose) (HPC) 92 % of control

COc1c(N)ccc(-c2ccc(N)c(OC)c2Cl)c1Cl
inactive: dose: 75.0 mg/kg/injection, schedule: Q04DX003 (ip), vehicle: saline with Tween-80 94 % of control

CCC[CH2][Sn]1([CH2]CCC)[O]C(=O)C[S]1
inactive: dose: 0.78 mg/kg/injection, schedule: Q04DX003 (ip), vehicle: saline 105 % of control | dose: 1.5 mg/kg/injection, schedule: Q01DX Z (ip), vehicle: saline 97 % of control | dose: 1.56 mg/kg/injection, schedule: Q01DX001 (ip), vehicle: acetone 96 % of control | dose: 1.56 mg/kg/injection, schedule: Q04DX003 (ip), vehicle: saline 109 % of control | dose: 2.5 mg/kg/injection, schedule: Q01DX009 (ip), vehicle: acetone 105 % of control | dose: 3.0 mg/kg/injection, schedule: Q01DX Z (ip), vehicle: saline 106 % of control | dose: 3.12 mg/kg/injection, schedule: Q01DX001 (ip), vehicle: acetone 104 % of control | dose: 3.12 mg/kg/injection, schedule: Q04DX003 (ip), vehicle: saline 109 % of control | dose: 4.6 mg/kg/injection, schedule: Q04DX003 (ip), vehicle: saline 107 % of control | dose: 6.0 mg/kg/injection, schedule: Q01DX Z (ip), vehicle: saline 90 % of control | dose: 6.25 mg/kg/injection, schedule: Q01DX001 (ip), vehicle: acetone 105 % of control | dose: 6.25 mg/kg/injection, schedule: Q04DX002 (ip), vehicle: saline with Tween-80 101 % of control | dose: 7.0 mg/kg/injection, schedule: Q04DX003 (ip), vehicle: saline 97 % of control | dose: 10.0 mg/kg/injection, schedule: Q04DX003 (ip), vehicle: saline 108 % of control | dose: 12.5 mg/kg/injection, schedule: Q04DX002 (ip), vehicle: saline with Tween-80 96 % of control | [11] 106 % of control

O=C(CNC(=O)Nc1ccc(Cl)c(Cl)c1)N/N=C/c1ccc(F)cc1
inactive: [12] 98 % of control | [13] 96 % of control | dose: 400.0 mg/kg/injection, schedule: Q01DX009 (ip), vehicle: saline with Tween-80 98 % of control

O=C(c1cccs1)C1Cc2ccccc2C1=O (centres undefined)
inactive: dose: 100.0 mg/kg/injection, schedule: Q01DX009 (ip), vehicle: saline sonified 98 % of control | [14] 94 % of control | dose: 200.0 mg/kg/injection, schedule: Q01DX009 (ip), vehicle: saline sonified 95 % of control | [15] 92 % of control | dose: 400.0 mg/kg/injection, schedule: Q01DX009 (ip), vehicle: saline sonified 101 % of control | [16] 94 % of control

Cc1nc(N)nc(N)c1Cc1ccc(N=[N+]=[N-])cc1
inactive: dose: 25.0 mg/kg/injection, schedule: Q04DX002 (ip), vehicle: saline with Tween-80 98 % of control | dose: 50.0 mg/kg/injection, schedule: Q04DX002 (ip), vehicle: saline with Tween-80 113 % of control

COc1cc(C=Nc2ccc(C)c(Cl)c2)ccc1OC(=O)c1ccccc1
inactive: [11] 96 % of control | dose: 200.0 mg/kg/injection, schedule: Q04DX002 (ip), vehicle: saline with Tween-80 93 % of control | dose: 400.0 mg/kg/injection, schedule: Q04DX002 (ip), vehicle: saline with Tween-80 104 % of control

c1ccc(-c2ncnc3c2Cc2ccccc2-3)cc1
inactive: [14] 92 % of control | [15] 94 % of control | [16] 97 % of control

Cc1cc(C)c2c(C#N)cn(-c3ccc([N+](=O)[O-])cc3)c2n1
inactive: [1] 98 % of control | [2] 109 % of control | [4] 102 % of control | [3] 95 % of control | dose: 400.0 mg/kg/injection, schedule: Q01DX001 (ip), vehicle: saline 94 % of control

CCC(C)C1(C)OC1C(=O)OC (centres undefined)
inactive: [12] 93 % of control | [10] 100 % of control | [13] 86 % of control | dose: 200.0 mg/kg/injection, schedule: Q04DX003 (ip), vehicle: saline with Tween-80 101 % of control | dose: 400.0 mg/kg/injection, schedule: Q04DX003 (ip), vehicle: saline with Tween-80 97 % of control

O=C(Nc1ccccc1)/C(Cl)=C/O
inactive: [8] 91 % of control | [9] 94 % of control | dose: 400.0 mg/kg/injection, schedule: Q04DX002 (ip), vehicle: Klucel (hydroxypropylcellulose) (HPC) 97 % of control

Nc1nc(N)c2nc(CNC3CCCCC3)cnc2n1
inactive: dose: 20.0 mg/kg/injection, schedule: Q01DX009 (ip), vehicle: Klucel (hydroxypropylcellulose) (HPC) 95 % of control | dose: 40.0 mg/kg/injection, schedule: Q01DX009 (ip), vehicle: Klucel (hydroxypropylcellulose) (HPC) 93 % of control | dose: 80.0 mg/kg/injection, schedule: Q01DX009 (ip), vehicle: Klucel (hydroxypropylcellulose) (HPC) 97 % of control
